Biological target: T1, SERCA1A (sarcoplasmic/endoplasmic reticulum Ca2+ ATPase) (Oryctolagus cuniculus, UniProt P04191)
T1 construct: gene ATP2A1; purified rabbit skeletal muscle SR membranes expressing the SERCA1A isoform
Assay: coupled-enzyme ATPase assay on purified SERCA1A from rabbit skeletal muscle
Assay type: biochemical

T1 sequence (P04191 1-993): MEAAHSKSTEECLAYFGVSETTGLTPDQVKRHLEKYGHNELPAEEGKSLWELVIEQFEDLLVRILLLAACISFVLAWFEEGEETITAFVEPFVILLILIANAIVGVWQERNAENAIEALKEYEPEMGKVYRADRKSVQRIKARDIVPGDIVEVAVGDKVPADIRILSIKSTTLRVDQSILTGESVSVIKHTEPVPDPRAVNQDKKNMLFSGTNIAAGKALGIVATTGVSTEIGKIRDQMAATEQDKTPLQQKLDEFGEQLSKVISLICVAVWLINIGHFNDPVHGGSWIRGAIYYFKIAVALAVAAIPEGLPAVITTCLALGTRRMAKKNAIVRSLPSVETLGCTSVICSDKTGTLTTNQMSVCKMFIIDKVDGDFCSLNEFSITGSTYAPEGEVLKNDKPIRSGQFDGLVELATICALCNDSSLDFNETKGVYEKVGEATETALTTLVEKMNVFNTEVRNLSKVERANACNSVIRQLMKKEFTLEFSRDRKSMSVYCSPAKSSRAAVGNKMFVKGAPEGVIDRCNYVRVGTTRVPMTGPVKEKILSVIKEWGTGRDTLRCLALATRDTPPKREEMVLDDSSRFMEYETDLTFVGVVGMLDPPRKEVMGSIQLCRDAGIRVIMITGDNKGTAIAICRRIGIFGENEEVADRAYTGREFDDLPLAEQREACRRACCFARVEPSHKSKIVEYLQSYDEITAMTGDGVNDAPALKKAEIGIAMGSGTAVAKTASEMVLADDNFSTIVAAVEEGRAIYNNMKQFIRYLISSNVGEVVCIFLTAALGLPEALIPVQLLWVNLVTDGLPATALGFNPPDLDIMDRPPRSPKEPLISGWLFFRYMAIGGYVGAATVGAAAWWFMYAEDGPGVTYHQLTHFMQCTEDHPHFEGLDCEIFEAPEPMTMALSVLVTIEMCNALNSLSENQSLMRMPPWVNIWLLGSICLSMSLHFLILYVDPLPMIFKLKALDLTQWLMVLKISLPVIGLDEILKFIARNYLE

Work on `COc1ccc(C[C@@H]2c3cc(Oc4cc(C[C@@H]5c6cc(OC)c(OC)cc6CCN5C)ccc4O)c(OC)cc3CCN2C)cc1` [neferine] yielded an IC50 of 320 ± 70 µM.

Source: paper PMC6934498, “Neferine induces autophagy-dependent cell death in apoptosis-resistant cancers via ryanodine receptor and Ca^2+-dependent mechanism” (Scientific Reports, 2019)
